Reference: patent US9109041B2, “Analog compounds of analgesic peptides derived from the venom of crotalus durissus terrificus snakes, their uses, compositions, methods of preparation and purification” (priority 2004, dated 2015)

How the values were obtained:
[1] = test system: allodynia induced by constriction of the sciatic nerve; assay: allodynia induced by chronic constriction of the sciatic nerve (von Frey hairs); type: in vivo, rat
Experimental: For the induction of neuropathic pain, surgery was performed in the sciatic nerve, in accordance with the method described by Bennett, G. J and Xie, Y. K. (Pain, 33:87-107, 1988). The animals were anesthetized with halothane. The sciatic nerve was exposed in the middle region of the thigh, moving away the femoral biceps muscle. Close to the trifurcation of the sciatic nerve, 7 mm of distance from the trifurcation, 4 loose ligations were performed (chromed catgut 4-0) around it, distant from each other in approximately 1 mm. The bindings were performed along the nerve, up to 4-5 mm from the initial point. The incision was sutured in layers, using silk suture thread number 4-0.
Allodynia was evaluated for quantitative testing, in response to tactile stimulus applied to the paws of the rat, according to the method described by Chaplan el al. (1994), modified. In this test, the rats were placed, individually, in plastic cages, with meshed wire at the bottom, to allow access to the paws of these animals. Briefly, a logarithmic series of 10 calibrated Semmes-Weinstein monofilaments (von Frey hairs, Aesthesiometer Semmer-Weinstein, Stoelting Co., E.U.A) was applied to the right hind paw to determine the stimulus intensity threshold stiffness required to elicit a paw withdrawal response. Log stiffness of the hairs is determined by log 10 (mg×10) having the following values (the value in grams is between parenthesis): 3.61 (0.407 g); 3.84 (0.692 g); 4.08 (1.202 g); 4.17 (1.479 g); 4.31 (2.041 g); 4.56 (3.630 g); 4.74 (5.495 g); 4.93 (8.511 g); 5.07 (11.749 g) and 5.18 (15.136 g). It is important to point out that the filaments with weight greater than 15.136 g were not employed in the studies of allodynia.
The filaments were applied, one by one, perpendicularly, under the plantar area of both hind paws and maintained for a period of 8 seconds. The filament capable of eliciting the withdrawal of the paw, two consecutive times, was considered as the force in grams necessary to elicit the response (100% of response). In the absence of a response to the greater stimulus (15.135 g), this filament was considered as cut value.
The behavioral responses were used to calculate the 50% paw withdrawal threshold (absolute threshold), by fitting a gaussian integral psychometric function, using a maximum-likelihood fitting method. This fitting method allows parametric analyses.
The period of the application of the test and the treatments were the same as those used for determination of hyperalgesia (Table 12).
The results were analyzed by comparing the means of the basal and initial measurements or, when determined, by comparing the means obtained in the different experimental groups.
For this purpose, the animals were treated with CTOP, a specific μ receptor antagonist (20 μg/paw), nor-BNI, a specific κ receptor antagonist (50 μg/paw) or with ICI 174,864, a specific δ receptor antagonist (10 μg/paw). The antagonists were injected, by intraplantar route. The peptide was administered in the dose of 5 μg/kg, orally, immediately before the injection of the opioid antagonists.
The results were analyzed comparing the mean values of the basal and initial measurements, or of the initial and final measurements or, when determined, by comparing the mean values obtained in the different experimental groups (Tables 15 and 16).

[2] = test system: prostaglandin E2-induced hyperalgesia; assay: rat paw pressure test, prostaglandin E2-induced hyperalgesia; settings: for 50% effective dose / 60% effective dose / 90% effective dose: reversal of PGE2-induced hyperalgesia, CurveExpert 1.3

Xaa-Phe-Ser-Pro-Glu-Asn-Cys-Gln-Gly-Glu-Ser-Gln-Pro-Cys [SEQ ID NO: 2]
paw withdrawal threshold (allodynia), FM 96 h ([1]; 5 μg/kg p.o., day 14, 96 h after peptide): 4.21 ± 0.01 log 10 (mg × 10)
paw withdrawal threshold (allodynia), IM ([1]; 5 μg/kg p.o., day 14, before peptide (Table 16)): 4.27 ± 0.04 log 10 (mg × 10)
paw withdrawal threshold (allodynia), IM ([1]; 5 μg/kg p.o., day 14 after surgery, before peptide (Table 12)): 4.23 ± 0.00 log 10 (mg × 10)
duration of the anti-allodynic effect ([1]; one single administration p.o.): up to 3 days
effect of the mu opioid receptor antagonist on the anti-allodynic effect of the peptide ([1]; peptide 5 μg/kg p.o., CTOP 20 μg/paw i.pl.): did not alter
effect of the delta opioid receptor antagonist on the anti-allodynic effect of the peptide ([1]; peptide 5 μg/kg p.o., ICI 174,864 10 μg/paw i.pl.): blocked
effect of the kappa opioid receptor antagonist on the anti-allodynic effect of the peptide ([1]; peptide 5 μg/kg p.o., nor-BNI 50 μg/paw i.pl.): partially inhibited
pain threshold, FM (g) ± S.E.M ([2]; 0.00000256 μg/paw i.pl., 3 h after PGE2 100 ng/paw i.pl.): 57 ± 5.34 g
pain threshold, IM (g) ± S.E.M. ([2]; 0.00000256 μg/paw i.pl., before PGE2): 72 ± 1.12 g
pain threshold, FM (g) ± S.E.M ([2]; 0.0000128 μg/kg i.v., 3 h after PGE2 100 ng/paw i.pl.): 54 ± 3.04 g
pain threshold, IM (g) ± S.E.M. ([2]; 0.0000128 μg/kg i.v., before PGE2): 70 ± 2.05 g
pain threshold, FM (g) ± S.E.M ([2]; 0.0000128 μg/paw i.pl., 3 h after PGE2 100 ng/paw i.pl.): 62 ± 3.22 g
pain threshold, IM (g) ± S.E.M. ([2]; 0.0000128 μg/paw i.pl., before PGE2): 71 ± 2.39 g
pain threshold, FM (g) ± S.E.M ([2]; 0.000064 μg/kg i.v., 3 h after PGE2 100 ng/paw i.pl.): 54 ± 2.39 g
pain threshold, IM (g) ± S.E.M. ([2]; 0.000064 μg/kg i.v., before PGE2): 68 ± 1.44 g
pain threshold, FM (g) ± S.E.M ([2]; 0.00032 μg/kg i.v., 3 h after PGE2 100 ng/paw i.pl.): 63 ± 5.16 g
pain threshold, IM (g) ± S.E.M. ([2]; 0.00032 μg/kg i.v., before PGE2): 72 ± 1.84 g
pain threshold, FM (g) ± S.E.M ([2]; 0.00032 μg/paw i.pl., 3 h after PGE2 100 ng/paw i.pl.): 60 ± 3.25 g
pain threshold, IM (g) ± S.E.M. ([2]; 0.00032 μg/paw i.pl., before PGE2): 67 ± 2.35 g
pain threshold, FM (g) ± S.E.M ([2]; 0.0016 μg/kg i.v., 3 h after PGE2 100 ng/paw i.pl.): 67 ± 2.35 g
pain threshold, IM (g) ± S.E.M. ([2]; 0.0016 μg/kg i.v., before PGE2): 74 ± 0.92 g
pain threshold, FM (g) ± S.E.M ([2]; 0.0016 μg/kg p.o., 3 h after PGE2 100 ng/paw i.pl.): 64 ± 1.00 g
pain threshold, IM (g) ± S.E.M. ([2]; 0.0016 μg/kg p.o., before PGE2): 78 ± 1.22 g
pain threshold, FM (g) ± S.E.M ([2]; 0.0016 μg/paw i.pl., 3 h after PGE2 100 ng/paw i.pl.): 67 ± 1.12 g
pain threshold, IM (g) ± S.E.M. ([2]; 0.0016 μg/paw i.pl., before PGE2): 72 ± 1.84 g
pain threshold, FM (g) ± S.E.M ([2]; 0.008 μg/kg i.v., 3 h after PGE2 100 ng/paw i.pl.): 73 ± 4.74 g
pain threshold, IM (g) ± S.E.M. ([2]; 0.008 μg/kg i.v., before PGE2): 69 ± 2.26 g
pain threshold, FM (g) ± S.E.M ([2]; 0.008 μg/kg p.o., 3 h after PGE2 100 ng/paw i.pl.): 71 ± 2.39 g
pain threshold, IM (g) ± S.E.M. ([2]; 0.008 μg/kg p.o., before PGE2): 79 ± 1.25 g
pain threshold, FM (g) ± S.E.M ([2]; 0.04 μg/kg p.o., 3 h after PGE2 100 ng/paw i.pl.): 75 ± 1.87 g
pain threshold, IM (g) ± S.E.M. ([2]; 0.04 μg/kg p.o., before PGE2): 77 ± 1.22 g
pain threshold, FM (g) ± S.E.M ([2]; 0.2 μg/kg p.o., 3 h after PGE2 100 ng/paw i.pl.): 84 ± 1.87 g
pain threshold, IM (g) ± S.E.M. ([2]; 0.2 μg/kg p.o., before PGE2): 77 ± 2.00 g
pain threshold, FM (g) ± S.E.M ([2]; 1 μg/kg p.o. + CTOP 20 μg/leg i.pl. with PGE2, 3 h after PGE2): 114 ± 1.87 g
pain threshold, IM (g) ± S.E.M. ([2]; 1 μg/kg p.o. + CTOP 20 μg/leg i.pl., before PGE2): 77 ± 1.22 g
pain threshold, FM (g) ± S.E.M ([2]; 1 μg/kg p.o. + ICI174,864 10 μg/paw i.pl. with PGE2, 3 h after PGE2): 114 ± 1.00 g
pain threshold, IM (g) ± S.E.M. ([2]; 1 μg/kg p.o. + ICI174,864 10 μg/paw i.pl., before PGE2): 78 ± 1.22 g
pain threshold, FM (g) ± S.E.M ([2]; 1 μg/kg p.o. + nor-Binalthorphimine 50 μg/leg i.pl. with PGE2, 3 h after PGE2): 56 ± 1.87 g
pain threshold, IM (g) ± S.E.M. ([2]; 1 μg/kg p.o. + nor-Binalthorphimine 50 μg/leg i.pl., before PGE2): 77 ± 1.22 g
pain threshold, IM (g) ± S.E.M. ([2]; 1 μg/kg p.o., 0 h, before administration (Table 6)): 79 ± 1.00 g
pain threshold, FM (g) ± S.E.M ([2]; 1.0 μg/kg p.o., 3 h after PGE2 100 ng/paw i.pl. (Table 2)): 108 ± 2.00 g
pain threshold, FM (g) ± S.E.M ([2]; 1 μg/kg p.o., 3 h after PGE2 100 ng/paw i.pl. (Table 7)): 111 ± 3.32 g
pain threshold, FM (g) ± S.E.M ([2]; 1 μg/kg p.o., 24 h after administration, PGE2 100 ng/paw 3 h before measurement): 126 ± 3.32 g
pain threshold, FM (g) ± S.E.M ([2]; 1 μg/kg p.o., 48 h after administration, PGE2 100 ng/paw 3 h before measurement): 121 ± 1.87 g
pain threshold, FM (g) ± S.E.M ([2]; 1 μg/kg p.o., 72 h after administration, PGE2 100 ng/paw 3 h before measurement): 111 ± 4.3 g
pain threshold, FM (g) ± S.E.M ([2]; 1 μg/kg p.o., 96 h after administration, PGE2 100 ng/paw 3 h before measurement): 117 ± 2.5 g
pain threshold, FM (g) ± S.E.M ([2]; 1 μg/kg p.o., 120 h after administration, PGE2 100 ng/paw 3 h before measurement): 130 ± 2.24 g
pain threshold, FM (g) ± S.E.M ([2]; 1 μg/kg p.o., 144 h after administration, PGE2 100 ng/paw 3 h before measurement): 59 ± 2.39 g
pain threshold, IM (g) ± S.E.M. ([2]; 1.0 μg/kg p.o., before PGE2 (Table 2)): 77 ± 2.00 g
pain threshold, IM (g) ± S.E.M. ([2]; 1 μg/kg p.o., before PGE2 (Table 7)): 77 ± 1.22 g
pain threshold, FM (g) ± S.E.M ([2]; 5 μg/kg p.o. + ICI174,864 i.pl. with PGE2, 3 h after PGE2): 145 ± 2.89 g
pain threshold, IM (g) ± S.E.M. ([2]; 5 μg/kg p.o. + ICI174,864 i.pl., before PGE2): 77 ± 1.05 g
pain threshold, FM (g) ± S.E.M ([2]; 5 μg/kg p.o. + nor-BNI i.pl. with PGE2, 3 h after PGE2): 58 ± 2.47 g
pain threshold, IM (g) ± S.E.M. ([2]; 5 μg/kg p.o. + nor-BNI i.pl., before PGE2): 77 ± 1.05 g
pain threshold, FM (g) ± S.E.M ([2]; 5.0 μg/kg p.o., 3 h after PGE2 100 ng/paw i.pl. (Table 2)): 130 ± 1.58 g
pain threshold, FM (g) ± S.E.M ([2]; 5 μg/kg p.o., 3 h after PGE2 100 ng/paw i.pl. (Table 8)): 147 ± 2.55 g
pain threshold, IM (g) ± S.E.M. ([2]; 5.0 μg/kg p.o., before PGE2 (Table 2)): 78 ± 2.00 g
pain threshold, IM (g) ± S.E.M. ([2]; 5 μg/kg p.o., before PGE2 (Table 8)): 77 ± 1.22 g
pain threshold, FM (g) ± S.E.M ([2]; 25.0 μg/kg p.o., 3 h after PGE2 100 ng/paw i.pl.): 133 ± 3.39 g
pain threshold, IM (g) ± S.E.M. ([2]; 25.0 μg/kg p.o., before PGE2): 79 ± 1.87 g
50% effective dose ([2]; intraplantar route): 0.000002327 µg/kg
60% effective dose ([2]; intraplantar route): 0.000004904 µg/kg
90% effective dose ([2]; intraplantar route): 0.002876 µg/kg
50% effective dose ([2]; intravenous route): 0.0000458 µg/kg
60% effective dose ([2]; intravenous route): 0.0002144 µg/kg
90% effective dose ([2]; intravenous route): 0.002701 µg/kg
duration of the antinociceptive effect ([2]; one single administration, 1 μg/kg p.o.): up to 120 hours
50% effective dose ([2]; oral route): 0.004146 µg/kg
60% effective dose ([2]; oral route): 0.006348 µg/kg
90% effective dose ([2]; oral route): 0.02106 µg/kg
opioid receptors involved in the antinociceptive effect ([2]; peptide 1 μg/kg p.o., delta, kappa, mu antagonists i.pl.): kappa opioid receptors are involved
opioid receptors involved in the antinociceptive activity ([2]; peptide 5 μg/kg p.o., kappa and delta antagonists i.pl.): kappa opioid receptors are involved
analgesic activity ([2]; synthetic peptides compared with natural ENPAK-k, similar conditions): same analgesic activity as the natural ENPAK-k
